Data as given in ChEMBL document CHEMBL4261651, “Probing the ligand preferences of the three types of bacterial pantothenate kinase” (Bioorg Med Chem, 2018).
Activity calls are given as the source filed them. The rule behind the calls is not given here.

Key:
[1] = target: T1, Type II pantothenate kinase (Staphylococcus aureus (strain MSSA476)) (UniProt Q6G7I0); assay: Substrate activity at N-terminal His6-tagged Staphylococcus aureus PanK2 expressed in Escherichia coli BL21(DE3) cells in presence of ATP/NADH by pyruvate kinase/lactate dehydrogenase enzyme coupled assay
T1 sequence (whole entry): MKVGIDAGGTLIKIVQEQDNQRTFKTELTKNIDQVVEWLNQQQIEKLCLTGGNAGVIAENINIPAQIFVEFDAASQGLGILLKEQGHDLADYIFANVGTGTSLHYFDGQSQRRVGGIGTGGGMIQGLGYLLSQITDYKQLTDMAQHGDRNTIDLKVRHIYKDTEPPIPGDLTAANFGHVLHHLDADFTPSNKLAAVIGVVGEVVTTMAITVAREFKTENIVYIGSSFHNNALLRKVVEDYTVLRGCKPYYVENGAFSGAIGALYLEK

[2] = target: T2, Type III pantothenate kinase (Pseudomonas aeruginosa (strain ATCC 15692 / DSM 22644 / CIP 104116 /JCM 14847 / LMG 12228 / 1C / PRS 101 / PAO1)) (UniProt Q9HWC1); assay: Substrate activity at Pseudomonas aeruginosa PanK3 expressed in Escherichia coli BL21(DE3) cells in presence of ATP/NADH by pyruvate kinase/lactate dehydrogenase enzyme coupled assay
T2 sequence (whole entry): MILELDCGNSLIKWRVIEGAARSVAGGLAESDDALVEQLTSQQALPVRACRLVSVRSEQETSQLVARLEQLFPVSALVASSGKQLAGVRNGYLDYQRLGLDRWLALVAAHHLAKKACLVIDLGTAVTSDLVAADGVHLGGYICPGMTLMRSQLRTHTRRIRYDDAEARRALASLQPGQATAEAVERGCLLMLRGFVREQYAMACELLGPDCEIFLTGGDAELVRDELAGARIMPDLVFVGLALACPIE

Enterococcus faecium = assay: Growth inhibition of Enterococcus faecium ATCC 19434 after 16 hrs by broth microdilution method; type: functional, organism-based
[3] = target: T2, Type III pantothenate kinase (Pseudomonas aeruginosa (strain ATCC 15692 / DSM 22644 / CIP 104116 /JCM 14847 / LMG 12228 / 1C / PRS 101 / PAO1)); assay: Inhibition of Pseudomonas aeruginosa PanK3 expressed in Escherichia coli BL21 Rosetta(DE3) cells at >= 100 uM using pantothenate as substrate in presence of ATP by pyruvate kinase/lactate dehydrogenase enzyme coupled assay
Escherichia coli [4] = assay: Substrate activity at N-terminal His6-tagged Escherichia coli PanK1 expressed in Escherichia coli BL21(DE3) cells in presence of ATP/NADH by pyruvate kinase/lactate dehydrogenase enzyme coupled assay
Pseudomonas aeruginosa = assay: Growth inhibition of Pseudomonas aeruginosa ATCC 27853 after 16 hrs by broth microdilution method; type: functional, organism-based
[5] = target: T1, Type II pantothenate kinase (Staphylococcus aureus (strain MSSA476)); assay: Inhibition of N-terminal His6-tagged Staphylococcus aureus PanK2 expressed in Escherichia coli BL21(DE3) cells at >= 100 uM using pantothenate as substrate in presence of ATP by pyruvate kinase/lactate dehydrogenase enzyme coupled assay
Escherichia coli [6] = assay: Inhibition of N-terminal His6-tagged Escherichia coli PanK1 expressed in Escherichia coli BL21(DE3) cells at >= 100 uM using pantothenate as substrate in presence of ATP by pyruvate kinase/lactate dehydrogenase enzyme coupled assay
Escherichia coli [7] = assay: Growth inhibition of Escherichia coli ATCC 25922 after 16 hrs by broth microdilution method; type: functional, organism-based
Escherichia coli [8] = assay: Inhibition of N-terminal His6-tagged Escherichia coli PanK1 expressed in Escherichia coli BL21(DE3) cells at 200 uM using pantothenate as substrate in presence of ATP by pyruvate kinase/lactate dehydrogenase enzyme coupled assay
Escherichia coli [9] = assay: Substrate activity at N-terminal His6-tagged Escherichia coli PanK1 expressed in Escherichia coli BL21(DE3) cells assessed as ratio of Kcat to Km in presence of ATP/NADH by pyruvate kinase/lactate dehydrogenase enzyme coupled assay
Escherichia coli [10] = assay: Substrate activity at N-terminal His6-tagged Escherichia coli PanK1 expressed in Escherichia coli BL21(DE3) cells assessed as Km in presence of ATP/NADH by pyruvate kinase/lactate dehydrogenase enzyme coupled assay
Escherichia coli [11] = assay: Substrate activity at N-terminal His6-tagged Escherichia coli PanK1 expressed in Escherichia coli BL21(DE3) cells assessed as Kcat in presence of ATP/NADH by pyruvate kinase/lactate dehydrogenase enzyme coupled assay
[12] = target: T1, Type II pantothenate kinase (Staphylococcus aureus (strain MSSA476)); assay: Substrate activity at N-terminal His6-tagged Staphylococcus aureus PanK2 expressed in Escherichia coli BL21(DE3) cells assessed as ratio of Kcat to Km in presence of ATP/NADH by pyruvate kinase/lactate dehydrogenase enzyme coupled assay
[13] = target: T1, Type II pantothenate kinase (Staphylococcus aureus (strain MSSA476)); assay: Inhibition of N-terminal His6-tagged Staphylococcus aureus PanK2 expressed in Escherichia coli BL21(DE3) cells at 200 uM using pantothenate as substrate in presence of ATP by pyruvate kinase/lactate dehydrogenase enzyme coupled assay
[14] = target: T2, Type III pantothenate kinase (Pseudomonas aeruginosa (strain ATCC 15692 / DSM 22644 / CIP 104116 /JCM 14847 / LMG 12228 / 1C / PRS 101 / PAO1)); assay: Inhibition of Pseudomonas aeruginosa PanK3 expressed in Escherichia coli BL21 Rosetta(DE3) cells at 200 uM using pantothenate as substrate in presence of ATP by pyruvate kinase/lactate dehydrogenase enzyme coupled assay
[15] = target: T2, Type III pantothenate kinase (Pseudomonas aeruginosa (strain ATCC 15692 / DSM 22644 / CIP 104116 /JCM 14847 / LMG 12228 / 1C / PRS 101 / PAO1)); assay: Substrate activity at Pseudomonas aeruginosa PanK3 expressed in Escherichia coli BL21(DE3) cells assessed as ratio of Kcat to Km in presence of ATP/NADH by pyruvate kinase/lactate dehydrogenase enzyme coupled assay

SMILES	Activity [1]	Activity [2]	inhibition [3]	inhibition [5]	Ratio [12]	inhibition [13]	inhibition [14]	Ratio [15]	growth inhibition (GI) (Enterococcus faecium)	Activity (Escherichia coli [4])	growth inhibition (GI) (Pseudomonas aeruginosa)	inhibition (Escherichia coli [6])	growth inhibition (GI) (Escherichia coli [7])	inhibition (Escherichia coli [8])	Ratio (Escherichia coli [9])	Km (Escherichia coli [10])	kcat (Escherichia coli [11])
CC(C)(CNCCc1ccccc1)[C@@H](O)C(=O)NCCC(=O)O	–	–	–	–	–	–	–	–	inactive	–	inactive	–	inactive	Active	–	–	–
CC(C)(CO)[C@@H](O)C(=O)NCc1cn(CCc2ccccc2)nn1	–	–	inactive	inactive	37 mM⁻¹ s⁻¹	–	–	–	inactive	–	inactive	inactive	inactive	–	44 mM⁻¹ s⁻¹	25 µM	1.09 s⁻¹
CCCCCc1cn(CCNC(=O)[C@H](O)C(C)(C)CO)nn1	–	–	inactive	inactive	97 mM⁻¹ s⁻¹	–	–	–	inactive	–	inactive	inactive	inactive	–	53 mM⁻¹ s⁻¹	21 µM	1.11 s⁻¹
CCCNCC(C)(C)[C@@H](O)C(=O)NCCC(=O)O	–	–	–	–	–	–	–	–	inactive	–	inactive	–	inactive	–	–	–	–
CCCCn1cc(CCNC(=O)[C@H](O)C(C)(C)CO)nn1	–	–	inactive	inactive	115 mM⁻¹ s⁻¹	–	–	–	inactive	–	inactive	inactive	inactive	–	22 mM⁻¹ s⁻¹	50 µM	1.08 s⁻¹
CCCCCNCC(C)(C)[C@@H](O)C(=O)NCCC(=O)O	–	–	–	–	–	–	–	–	inactive	–	inactive	–	inactive	Active	–	–	–
O=C(O)CCNC(=O)[C@H](O)CCO	–	–	inactive	inactive	–	–	–	5 mM⁻¹ s⁻¹	inactive	–	inactive	inactive	inactive	–	–	–	–
CC(=O)CC(=O)OCC(C)(C)[C@@H](O)C(=O)NCCC(=O)O	–	–	–	–	–	–	–	–	inactive	–	inactive	–	inactive	–	–	–	–
CCCCCn1cc(CNC(=O)[C@H](O)C(C)(C)CO)nn1	–	–	inactive	inactive	54 mM⁻¹ s⁻¹	–	–	–	inactive	–	inactive	inactive	inactive	–	–	–	–
CCCCCCCNCC(C)(C)[C@@H](O)C(=O)NCCC(=O)O	–	–	–	–	–	–	–	–	inactive	–	inactive	–	inactive	–	–	–	–
COCC(C)(C)[C@@H](OC)C(=O)NCCC(=O)O	–	–	–	–	–	–	–	–	inactive	–	inactive	–	inactive	–	–	–	–

Second part, led by results:

Activity [1]	Activity [2]	inhibition [3]	inhibition [5]	Ratio [12]	inhibition [13]	inhibition [14]	Ratio [15]	SMILES	growth inhibition (GI) (Enterococcus faecium)	Activity (Escherichia coli [4])	growth inhibition (GI) (Pseudomonas aeruginosa)	inhibition (Escherichia coli [6])	growth inhibition (GI) (Escherichia coli [7])	inhibition (Escherichia coli [8])	Ratio (Escherichia coli [9])	Km (Escherichia coli [10])	kcat (Escherichia coli [11])
inactive	inactive	inactive	inactive	–	–	–	–	CC(C)(CNCCCO)[C@@H](O)C(=O)NCCC(=O)O	inactive	inactive	inactive	inactive	inactive	–	–	–	–
–	–	inactive	inactive	–	–	–	–	CC(C)(CO)[C@@H](O)C(=O)NCC(=O)O	inactive	–	inactive	inactive	inactive	–	26 mM⁻¹ s⁻¹	62 µM	1.59 s⁻¹
–	–	inactive	inactive	8.3 mM⁻¹ s⁻¹	–	–	–	COC(=O)CCNC(=O)[C@H](O)C(C)(C)CO	inactive	–	inactive	inactive	inactive	–	2.7 mM⁻¹ s⁻¹	292 µM	0.8 s⁻¹
–	–	–	–	–	Active	Active	–	CC(=O)CC(=O)NCC(C)(C)[C@@H](O)C(=O)NCCC(=O)O	inactive	–	inactive	–	inactive	Active	–	–	–
–	–	inactive	inactive	7.1 mM⁻¹ s⁻¹	–	–	–	COC(=O)CCCNC(=O)[C@H](O)C(C)(C)CO	inactive	–	inactive	inactive	inactive	–	–	–	–
–	–	inactive	inactive	21 mM⁻¹ s⁻¹	–	–	–	CCCc1cn(CCCNC(=O)[C@H](O)C(C)(C)CO)nn1	inactive	–	inactive	inactive	inactive	–	–	–	–
–	–	inactive	inactive	107 mM⁻¹ s⁻¹	–	–	–	CCCCCn1cc(CCNC(=O)[C@H](O)C(C)(C)CO)nn1	inactive	–	inactive	inactive	inactive	–	22 mM⁻¹ s⁻¹	33 µM	0.72 s⁻¹
–	–	–	–	> 290 mM⁻¹ s⁻¹	–	–	–	CCCCCNC(=O)CCNC(=O)[C@H](O)C(C)(C)CO	–	–	–	–	–	–	–	–	–
–	–	inactive	inactive	57 mM⁻¹ s⁻¹	–	–	1.4 mM⁻¹ s⁻¹	CC(C)(CO)[C@@H](O)C(=O)NCCCC(=O)O	inactive	–	inactive	inactive	inactive	–	–	–	–
–	–	inactive	inactive	–	–	–	–	CO[C@@H](C(=O)NCCC(=O)O)C(C)(C)CO	inactive	–	inactive	inactive	inactive	–	31 mM⁻¹ s⁻¹	16 µM	0.49 s⁻¹
–	–	–	–	115 mM⁻¹ s⁻¹	–	–	20 mM⁻¹ s⁻¹	CC(C)(CO)[C@@H](O)C(=O)NCCC(=O)O	–	–	–	–	–	–	76 mM⁻¹ s⁻¹	17 µM	1.29 s⁻¹
–	–	–	–	–	–	Active	–	COCC(C)(C)[C@@H](O)C(=O)NCCC(=O)O	inactive	–	inactive	–	inactive	Active	–	–	–
–	–	–	–	–	–	Active	–	CNCC(C)(C)[C@@H](O)C(=O)NCCC(=O)O	inactive	–	inactive	–	inactive	Active	–	–	–
–	–	inactive	inactive	115 mM⁻¹ s⁻¹	–	–	–	COC(=O)CNC(=O)[C@H](O)C(C)(C)CO	inactive	–	inactive	inactive	inactive	–	5.8 mM⁻¹ s⁻¹	156 µM	0.91 s⁻¹
–	–	–	–	–	Active	–	–	CC(C)(C(=O)O)[C@@H](O)C(=O)NCCC(=O)O	inactive	–	inactive	–	inactive	–	–	–	–
